Series [1] is described as follows: blood concentration when administered to an animal (statement only, no method). It is filed as in vivo. Particulars: when administered as a pharmaceutical agent to an animal; in words.
In series [2] the test system is HCV type 1a. In words: inhibitory activity on HCV type 1a (statement only, no method). Particulars: in words.
Series [3] relates to HCV type 1b. Nature of the series: inhibitory activity on HCV type 1b (statement only, no method). As to conditions: in words.
The target of series [4] is T1, HCV polymerase (Hepatitis C virus genotype 1b, UniProt P26663).
T1 construct: a region encoding NS5B (591 amino acids; J Virol 1991 Mar, 65(3), 1105-13) was amplified by PCR; 6 His (N); made in house; host or cells: Escherichia coli
T1 sequence (P26663 2420-3010): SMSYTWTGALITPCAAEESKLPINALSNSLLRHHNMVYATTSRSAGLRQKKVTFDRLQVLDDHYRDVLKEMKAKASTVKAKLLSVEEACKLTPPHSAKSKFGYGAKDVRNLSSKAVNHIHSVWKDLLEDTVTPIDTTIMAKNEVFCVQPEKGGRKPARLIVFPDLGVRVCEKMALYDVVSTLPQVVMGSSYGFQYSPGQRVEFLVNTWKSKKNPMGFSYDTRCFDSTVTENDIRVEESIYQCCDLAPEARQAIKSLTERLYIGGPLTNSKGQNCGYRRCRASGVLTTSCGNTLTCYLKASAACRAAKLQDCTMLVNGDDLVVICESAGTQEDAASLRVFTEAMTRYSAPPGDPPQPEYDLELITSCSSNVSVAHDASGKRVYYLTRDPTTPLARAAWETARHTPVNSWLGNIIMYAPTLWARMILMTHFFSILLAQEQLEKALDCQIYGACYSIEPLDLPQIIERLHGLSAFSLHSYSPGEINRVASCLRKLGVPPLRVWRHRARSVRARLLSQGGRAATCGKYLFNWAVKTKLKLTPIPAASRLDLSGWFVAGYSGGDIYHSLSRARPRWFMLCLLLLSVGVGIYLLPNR
In words: biochemical. Particulars: read-out: HCV polymerase inhibitory activity IC50.

A word on the melting point: it is the temperature of the solid-liquid transition. One may read the IC50 as the concentration at which inhibition is half-maximal.

Molecules are shown by their SMILES.

In the case of `Cl.O=C(O)c1ccc2c(c1)nc(-c1ccc(OCc3cc(N4CCCC4=O)ccc3-c3ccc(Cl)cc3)cc1F)n2C1CCCCC1` [2-{4-[2-(4-chlorophenyl)-5-(2-oxopyrrolidin-1-yl)benzyloxy]-2-fluorophenyl}-1-cyclohexylbenzimidazole-5-carboxylic acid hydrochloride], the blood concentration entry in series [1] is recorded as “high blood concentration”. Further, the “inhibitory activity on HCV type 1a” value in series [2] is “high inhibitory activity”. Further, the “inhibitory activity on HCV type 1b” value in series [3] is listed as “high inhibitory activity”.
With `O=C(O)c1ccc2c(c1)nc(-c1ccc(Oc3cccc(OCc4ccncc4)c3)cc1)n2C1CCCCC1` [Example 30, 1-cyclohexyl-2-{4-[3-(4-pyridylmethoxy)phenyloxy]-phenyl}benzimidazole-5-carboxylic acid], the melting point was 235 to 237 °C. Also, in series [4], the half-maximal inhibitory concentration (IC50) was found to be 52 nM.

The values are drawn from patent US20040082635A1, “Fused cyclic compounds and medicinal use thereof” (priority 2001, published 2004).
